Measured values from article PMC6659632, “Preferential phosphatidylinositol 5-phosphate binding contributes to a destabilization of the VHS domain structure of Tom1” (Scientific Reports, 2019).
Read-outs that look alike come from different tables or passages of the source. Values belong to the molecule of their own block, whether it stands above or below them.

Key:
Format in all cases: binding
Tom1 VHS domain [1] = biological target: T1, Tom1 VHS domain (Homo sapiens, UniProt O60784); assay: isothermal titration calorimetry
T1 construct: GST fusion from E. coli Rosetta, GST cut off with thrombin; monomer
T1 sequence (O60784 1-140 limits assumed): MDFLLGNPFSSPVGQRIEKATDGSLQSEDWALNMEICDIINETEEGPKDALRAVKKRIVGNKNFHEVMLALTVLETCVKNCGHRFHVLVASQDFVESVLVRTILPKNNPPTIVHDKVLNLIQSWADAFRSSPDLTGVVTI
From the text: isothermal titration calorimetry on Tom1 VHS domain

Tom1 VHS domain [2] = biological target: T1, Tom1 VHS domain; assay: thermal denaturation by far-UV CD at […] nm; conditions: molar excess of lipid, nonreducing, 5 mM sodium citrate pH 7.3, 50 mM KF; free protein Tm 47.5 ± 0.1 °C
Tom1 VHS domain [3] = biological target: T1, Tom1 VHS domain; assay: thermal denaturation by far-UV CD at […] nm; conditions: pre-incubated with excess lipid, nonreducing, 5 mM sodium citrate pH 7.3, 50 mM KF; free protein Tm 47.5 ± 0.1 °C

Kd (Tom1 VHS domain [1]): 214 ± 67.2 µM
Molecule: O=P(O)(O)O[C@@H]1[C@@H](O)[C@H](OP(=O)(O)O)[C@H](O)[C@H](O)[C@H]1O [Ins(1,5)P2]

Molecule: CCCCCCCC(=O)OC[C@H](COP(=O)([O-])OCC[N+](C)(C)C)OC(=O)CCCCCCC [PtdCho]
Tm (°C) / N to I/D (Tom1 VHS domain [2]): 43.0 ± 0.1 °C

Kd (Tom1 VHS domain [1]; high-affinity site of two-site fit, nonreducing, 20 mM HEPES pH 7.4, 150 mM KCl, 25 °C): 3.1 ± 0.6 µM
Tm (°C) / N to I/D (Tom1 VHS domain [2]): 37.6 ± 0.3 °C
Molecule: CCCCCCCC(=O)OC[C@H](COP(=O)(O)O[C@H]1[C@H](O)[C@@H](OP(=O)(O)O)[C@H](O)[C@@H](O)[C@H]1O)OC(=O)CCCCCCC [PtdIns5P]

mid-transition temperature (Tom1 VHS domain [3]): 34 °C
Molecule: PtdIns
